According to patent US9890142B2, “PDE4 inhibitor” (Meiji Seika Pharma Co., Ltd., priority 2013, dated 2018):

These compounds were tested on PDE4 (assay: Evaluation of PDE4 inhibition (scintillation proximity assay)). Conditions: inhibition rate relative to control, test compound at 1 μM.
Format: biochemical
Method: Test Example 1 Evaluation of PDE4 Inhibition
The PDE4 inhibitory activity was measured by using scintillation proximity assay (SPA) as follows: one in which a sample compound dissolved in dimethyl sulfoxide was diluted 10-fold with a buffer solution for reaction containing 50 mM Tris-HCl, pH 7.5, 8.3 mM MgCl2, 1.7 mM EDTA and 0.3 mg/mL bovine serum albumin (BSA) was added at 10 μL/well to a 96-well assay plate. Further, PDE4 diluted 750-fold with a buffer solution for reaction was added at 50 μL/well, then [2,8-^3H]-Adenosine-3′,5′-cyclic phosphate triethylammonium salt diluted 1000-fold with a buffer solution for reaction was added at 40 μL/well, and the plate was left standing at room temperature for 120 minutes. Thereafter, a suspension of RNA binding YSi-SPA Beads containing 200 mM ZnSO4 was added at 50 μL/well, and the plate was left standing at room temperature for 15 minutes to adsorb the enzyme reaction product onto the Beads. Thereafter, the radioactivity was measured with a liquid scintillation counter for 96-well plates. When one supplemented with only a buffer solution for reaction without adding the enzyme preparation was used as a blank and one supplemented with the enzyme preparation but supplemented with only dimethyl sulfoxide instead of the sample solution was used as a control, the inhibition rate of the test compound relative to the control was calculated according to the following calculation expression: Inhibition rate (%)={1−(Numeric value from the addition of each sample−Blank value)/(Control value−Blank value)}×100

**Q.** C[C@H]1CNCCN1c1nc2c(C(F)(F)F)c(F)cc(-c3nccs3)c2o1 [Example 118, (S)-5-Fluoro-2-(2-methylpiperazin-1-yl)-7-(thiazol-2-yl)-4-(trifluoromethyl)benzoxazole] was tested. Which “PDE4 inhibitory activity (1 μM (%))” value did it give?
**A.** 99%

**Q.** How did the “PDE4 inhibitory activity (1 μM (%))” value turn out when COc1c(Cl)cc2nc(N3CCNC[C@@H]3C)oc2c1OC [Example 169, (S)-5-Chloro-6,7-dimethoxy-2-(2-methylpiperazin-1-yl)benzoxazole] was run?
**A.** 22%

**Q.** With Cc1cnn(-c2cc(Cl)cc3nc(N4CCNC[C@@H]4C)oc23)c1 [Example 40, (S)-5-Chloro-7-(4-methyl-1H-pyrazol-1-yl)-2-(2-methylpiperazin-1-yl)benzoxazole] as the compound, how does the “PDE4 inhibitory activity (1 μM (%))” value read?
**A.** 68%

**Q.** Which “PDE4 inhibitory activity (1 μM (%))” value does the source give for COc1cc(C#N)cc2nc(N3CCNC[C@@H]3C)oc12 [Example 168, (S)-5-Cyano-7-methoxy-2-(2-methylpiperazin-1-yl)benzoxazole] here?
**A.** 13%

**Q.** How did the “PDE4 inhibitory activity (1 μM (%))” value turn out when C[C@H]1CNCCN1c1nc2cc(Cl)cc(-c3ccc(F)s3)c2o1 [Example 67, (S)-5-Chloro-7-(5-fluorothiophen-2-yl)-2-(2-methylpiperazin-1-yl)benzoxazole] was run?
**A.** 70%

**Q.** Which “PDE4 inhibitory activity (1 μM (%))” value does the source give for C[C@H]1CNCCN1c1nc2cc(Cl)cc(-c3ncccn3)c2o1 [Example 56, (S)-5-Chloro-2-(2-methylpiperazin-1-yl)-7-(pyrimidin-2-yl)benzoxazole] here?
**A.** 87%

**Q.** With C[C@H]1CNCCN1c1nc2c(C(F)(F)F)c(Cl)cc(-c3ccccn3)c2o1 [Example 82, (S)-5-Chloro-2-(2-methylpiperazin-1-yl)-7-(pyridin-2-yl)-4-(trifluoromethyl)benzoxazole] as the compound, how does the “PDE4 inhibitory activity (1 μM (%))” value read?
**A.** 94%

**Q.** With C[C@H]1CNCCN1c1nc2cc(C#N)cc(-c3nccs3)c2o1 [Example 112, (S)-5-Cyano-2-(2-methylpiperazin-1-yl)-7-(thiazol-2-yl)benzoxazole] as the compound, how does the “PDE4 inhibitory activity (1 μM (%))” value read?
**A.** 94%

**Q.** How did the “PDE4 inhibitory activity (1 μM (%))” value turn out when C[C@H]1CNCCN1c1nc2cc(Cl)cc(-c3ccco3)c2o1 [Example 23, (S)-5-Chloro-7-(furan-2-yl)-2-(2-methylpiperazin-1-yl)benzoxazole] was run?
**A.** 95%

**Q.** With Cc1cc(Cl)cc2nc(N3[C@H](C)CNC[C@@H]3C)oc12 [Example 4, meso-5-Chloro-2-(2,6-cis-dimethylpiperazin-1-yl)-7-methylbenzoxazole] as the compound, how does the “PDE4 inhibitory activity (1 μM (%))” value read?
**A.** 18%

**Q.** C[C@@H]1CNCCN1c1nc2c(OC(F)(F)F)c(Cl)cc(-n3cccn3)c2o1 [Example 159, (R)-5-Chloro-2-(2-methylpiperazin-1-yl)-7-(1H-pyrazol-1-yl)-4-(trifluoromethoxy)benzoxazole] was tested. Which “PDE4 inhibitory activity (1 μM (%))” value did it give?
**A.** 57%

**Q.** Which “PDE4 inhibitory activity (1 μM (%))” value does the source give for C[C@H]1CNCCN1c1nc2cc(Cl)c(I)c(-c3ccccn3)c2o1 [Example 147, (S)-5-Chloro-6-iodo-2-(2-methylpiperazin-1-yl)-7-(pyridin-2-yl)benz oxazole] here?
**A.** 53%

**Q.** C[C@H]1CNCCN1c1nc2c(OC(F)(F)F)c(Cl)cc(-c3nccs3)c2o1 [Example 87, (S)-5-Chloro-2-(2-methylpiperazin-1-yl)-7-(thiazol-2-yl)-4-(trifluoromethoxy)benzoxazole] was tested. Which “PDE4 inhibitory activity (1 μM (%))” value did it give?
**A.** 96%

**Q.** C[C@H]1CNCCN1c1nc2cc(Cl)cc(-c3ncc(C#N)s3)c2o1 [Example 62, (S)-5-Chloro-7-(5-cyanothiazol-2-yl)-2-(2-methylpiperazin-1-yl)benzoxazole] was tested. Which “PDE4 inhibitory activity (1 μM (%))” value did it give?
**A.** 65%

**Q.** How did the “PDE4 inhibitory activity (1 μM (%))” value turn out when C[C@H]1CNCCN1c1nc2cc(Cl)cc(C(=O)O)c2o1 [Example 99, (S)-5-Chloro-7-carboxy-2-(2-methylpiperazin-1-yl)benzoxazole] was run?
**A.** <10%

**Q.** How did the “PDE4 inhibitory activity (1 μM (%))” value turn out when C[C@H]1CNCCN1c1nc2c(OC(F)(F)F)c(Cl)cc(-n3cccn3)c2o1 [Example 88, (S)-5-Chloro-2-(2-methylpiperazin-1-yl)-7-(1H-pyrazol-1-yl)-4-(trifluoromethoxy)benzoxazole] was run?
**A.** 95%
